Reference: US20220296616A1, “SHP1 AND SHP2 INHIBITORS AND THEIR METHODS OF USE” (Tiaki Therapeutics Inc., priority 2019, published 2022)

Experiments:
[1] = system: matrix remodeling genes (mmp9, mmp16, mmp12, mmp2, mmp14); test: Expression of matrix remodeling genes in organotypic cortical brain slice cultures; format: cell-based, mice
Method: (§1) The treatment of organotypic cortical brain slice cultures from adult mice with Compound A for 48 h was associated with reductions in expression of matrix remodeling genes (mmp9, mmp16, mmp12; n=3-9, see FIG. 1A showing results of dosing of Compound A at 5 nM, 50 nM, 500 nM, and 5 μM) and total MMP12 protein (n=3-6, see FIG. 1B showing results of dosing of Compound A at 5 nM, 50 nM, 500 nM, and 5 μM).
(§2) The treatment of organotypic cortical brain slice cultures from adult mice with Compound B for 48 h was associated with reductions in expression of cytokine genes (egfr, i16ra, csf1r, illr1, plekho2; n=3, see FIG. 3A showing results of dosing of Compound B at 2 μM, and 20 μM) and matrix remodeling genes (mmp12, mmp2, mmp16, mmp14; n=3, see FIG. 3B showing results of dosing of Compound B at 2 μM, and 20 μM).
(§3) The treatment of organotypic brain mice cultures from adult mice with Compound C for 72 h was associated with reductions in expression of cytokine genes (egfr, i16ra, csf1r, plekho2; n=2, See FIG. 5A showing results of dosing of Compound C at 0.1 μM, 0.3 μM, and 10 μM), matrix remodeling genes (mmp12, mmp16; n=2, See FIG. 5B for results of dosing of compound C at 0.1 μM, 0.3 μM, and 10 μM), and astrocyte genes (egfr, ai464131, gdpd2, adh1l1; n=2, See FIG. 5C for results of dosing of compound C at 0.1 μM, 0.3 μM, and 10 μM), and increases in expression of neuronal marker genes (tbr1, dlx1, slc17a6, islr2; n=2, See FIG. 5D for results of dosing of compound C at 0.1 μM, 0.3 μM, and 10 μM).

MMP12 protein = test: Total MMP12 protein in organotypic cortical brain slice cultures; format: cell-based; details: organotypic cortical brain slice cultures from adult mice, 48 h, 5 nM, 50 nM, 500 nM, 5 μM; significant dose-dependence; FIG. 1B
Method: as §1

cytokine genes = test: Expression of cytokine genes in organotypic cortical slice cultures; format: cell-based, mice
Method: (§4) The treatment of organotypic cortical slice cultures with Compound A for 48 h was associated with reductions in expression of cytokine genes (cx3cl1, tgfbr2, i14ra, tgfb1, tnfrsf10b, csf1r, egfr, fit1, flt4, ccl12; n=3-9, see FIG. 2A showing results of dosing of Compound A at 5 nM, 50 nM, 500 nM, and 5 μM) and pro-inflammatory cytokines like IL-33 (n=3-6, see FIG. 2B showing results of dosing of Compound A at 50 nM, 500 nM, and 5 μM).
as §2, §3

IL-33 = test: Pro-inflammatory cytokine IL-33 in organotypic cortical slice cultures; format: cell-based, mice; details: 48 h, 50 nM, 500 nM, 5 μM, FIG. 2B
Method: as §4

astrocyte marker genes = test: Expression of astrocyte marker genes in organotypic cortical brain slice cultures; format: cell-based, mice
Method: (§5) The treatment of organotypic cortical brain slice cultures from adult mice with Compound B for 48 h was associated with reductions in expression of astrocyte marker genes (egfr, AI464131, Itga7, Gdpd2, Sox9, Aldh1l1, Entpd2; n=3, see FIG. 4A showing results of dosing of Compound B at 2 μM, and 20 μM) and increases in expression of neuronal marker genes (tbr1, Dlx1, Slc17a6, Islr2; n=3, see FIG. 4B showing results of dosing of Compound B at 2 μM, and 20 μM).
as §3

neuronal marker genes = test: Expression of neuronal marker genes in organotypic cortical brain slice cultures; format: cell-based, mice
Method: as §5, §3

Cc1nc(N2CCC3(CC2)CO[C@@H](C)[C@H]3N)c(CO)nc1-c1cccc(Cl)c1Cl [Compound A]
expression of matrix remodeling genes (mmp9, mmp16, mmp12) ([1]; organotypic cortical brain slice cultures from adult mice, 48 h, 5 nM, 50 nM, 500 nM, 5 μM, significant dose-dependence, FIG. 1A): reductions | total MMP12 protein (MMP12 protein): reductions | expression of cytokine genes (cx3cl1, tgfbr2, i14ra, tgfb1, tnfrsf10b, csf1r, egfr, fit1, flt4, ccl12) (cytokine genes; organotypic cortical slice cultures, 48 h, 5 nM, 50 nM, 500 nM, 5 μM, FIG. 2A): reductions | expression of pro-inflammatory cytokines like IL-33 (IL-33): reductions

O=S(=O)(O)c1ccc2cc(/N=N/c3cc(S(=O)(=O)O)c4cccnc4c3O)ccc2c1 [Compound B]
expression of matrix remodeling genes (mmp12, mmp2, mmp16, mmp14) ([1]; organotypic cortical brain slice cultures from adult mice, 48 h, 2 μM and 20 μM, FIG. 3B): reductions | expression of cytokine genes (egfr, i16ra, csf1r, illr1, plekho2) (cytokine genes; organotypic cortical brain slice cultures from adult mice, 48 h, 2 μM and 20 μM, FIG. 3A): reductions | expression of astrocyte marker genes (egfr, AI464131, Itga7, Gdpd2, Sox9, Aldh1l1, Entpd2) (astrocyte marker genes; organotypic cortical brain slice cultures from adult mice, 48 h, 2 μM and 20 μM, FIG. 4A): reductions | expression of neuronal marker genes (tbr1, Dlx1, Slc17a6, Islr2) (neuronal marker genes; organotypic cortical brain slice cultures from adult mice, 48 h, 2 μM and 20 μM, FIG. 4B): increases

CC1(N)CCN(c2cnc3c(-c4cccc(Cl)c4Cl)n[nH]c3n2)CC1 [Compound C]
expression of matrix remodeling genes (mmp12, mmp16) ([1]; organotypic brain cultures from adult mice, 72 h, 0.1 μM, 0.3 μM, 10 μM, FIG. 5B): reductions | expression of cytokine genes (egfr, i16ra, csf1r, plekho2) (cytokine genes; organotypic brain cultures from adult mice, 72 h, 0.1 μM, 0.3 μM, 10 μM, FIG. 5A): reductions | expression of astrocyte genes (egfr, ai464131, gdpd2, adh1l1) (astrocyte marker genes; organotypic brain cultures from adult mice, 72 h, 0.1 μM, 0.3 μM, 10 μM, FIG. 5C): reductions | expression of neuronal marker genes (tbr1, dlx1, slc17a6, islr2) (neuronal marker genes; organotypic brain cultures from adult mice, 72 h, 0.1 μM, 0.3 μM, 10 μM, FIG. 5D): increases
